pIC50: −log10 of the molar value.
Columns and labels:
[1] = biological target: T1, AR-VP16 (Homo sapiens, UniProt P10275); test: AR-VP16 DNA Binding Assay, antagonist mode (HepG2 cells, 0.1 nM R1881); format: cell-based
T1 sequence (P10275 560-920 limits assumed): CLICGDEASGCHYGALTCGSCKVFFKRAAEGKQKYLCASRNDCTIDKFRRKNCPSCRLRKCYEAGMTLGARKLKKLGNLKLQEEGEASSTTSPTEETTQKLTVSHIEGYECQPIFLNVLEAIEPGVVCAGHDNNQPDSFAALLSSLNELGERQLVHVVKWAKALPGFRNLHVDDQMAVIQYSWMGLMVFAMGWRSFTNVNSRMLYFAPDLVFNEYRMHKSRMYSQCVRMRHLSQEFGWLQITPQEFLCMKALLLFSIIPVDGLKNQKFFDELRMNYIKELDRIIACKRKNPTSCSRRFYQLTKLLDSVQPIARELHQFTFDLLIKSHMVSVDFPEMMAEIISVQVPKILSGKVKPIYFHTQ
Method in brief: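 HepG2 cells transiently transfected with AR-VP16 (Lipofectin), incubated overnight, then treated with compound in RPMI with charcoal-stripped serum. Antagonist mode adds R1881 at 0.1 nM final. Cells lysed after 48 h incubation for read-out.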

[2] = biological target: T1, AR-VP16; test: AR-VP16 DNA Binding Assay, agonist mode (HepG2 cells); format: cell-based; conditions: Emax >20x DMSO control = agonist

Row | Compound | pIC50 [1] | ARVP16 DNA Binding Assay (Agonist mode): Agonist? [2]
1 | CCOC(=O)c1cc(N2C(=S)N(c3cnc(C#N)c(C(F)(F)F)c3)C(=O)C23CCC3)ccc1F [Compound 8, Ethyl 5-(7-(6-cyano-5-(trifluoromethyl)pyridin-3-yl)-8-oxo-6-thioxo-5,7-diazaspiro[3.4]octan-5-yl)-2-fluorobenzoate] | < 6.00 | No (Agonist defined as a compound whose Emax in the ARVP16 DNA Binding Assay (Agonist mode) is >20x DMSO control)
2 | N#Cc1ncc(N2C(=O)C3(CCC3)N(c3ccc(OCCc4cccnc4)c(F)c3)C2=S)cc1C(F)(F)F [Compound 144, 5-(5-(3-Fluoro-4-(2-(pyridin-3-yl)ethoxy)phenyl)-8-oxo-6-thioxo-5,7-diazaspiro[3.4]octan-7-yl)-3-(trifluoromethyl)picolinonitrile] | > 6.00 | Yes (Agonist defined as a compound whose Emax in the ARVP16 DNA Binding Assay (Agonist mode) is >20x DMSO control)
3 | COc1cc(N2C(=S)N(c3cnc(C#N)c(C(F)(F)F)c3)C(=O)C23CCC3)ccc1F [Compound 32, 5-(5-(4-fluoro-3-methoxyphenyl)-8-oxo-6-thioxo-5,7-diazaspiro[3.4]octan-7-yl)-3-(trifluoromethyl)picolinonitrile] | > 6.00 | No (Agonist defined as a compound whose Emax in the ARVP16 DNA Binding Assay (Agonist mode) is >20x DMSO control)
4 | N#Cc1ncc(N2C(=O)C3(CCC3)N(c3ccc(F)c(O)c3)C2=S)cc1C(F)(F)F [Compound 123, 5-(5-(4-Fluoro-3-hydroxyphenyl)-8-oxo-6-thioxo-5,7-diazaspiro[3.4]octan-7-yl)-3-(trifluoromethyl)picolinonitrile] | < 6.00 | No (Agonist defined as a compound whose Emax in the ARVP16 DNA Binding Assay (Agonist mode) is >20x DMSO control)
5 | N#Cc1ncc(N2C(=O)C3(CCC3)N(c3ccc(C(F)(F)F)cc3)C2=S)cc1C(F)(F)F [Compound 46, 5-(8-Oxo-6-thioxo-5-(4-(trifluoromethyl)phenyl)-5,7-diazaspiro[3.4]octan-7-yl)-3-(trifluoromethyl)picolinonitrile] | > 6.00 | No (Agonist defined as a compound whose Emax in the ARVP16 DNA Binding Assay (Agonist mode) is >20x DMSO control)
6 | Cc1cc(N2C(=O)C3(CCC3)N(c3ccc(C(=O)Nc4cncc(F)c4)c(F)c3)C2=S)cnc1C#N [Compound 305, 4-(7-(6-Cyano-5-methylpyridin-3-yl)-8-oxo-6-thioxo-5,7-diazaspiro[3.4]octan-5-yl)-2-fluoro-N-(5-fluoropyridin-3-yl)benzamide] | > 6.00 | No (Agonist defined as a compound whose Emax in the ARVP16 DNA Binding Assay (Agonist mode) is >20x DMSO control)
7 | N#Cc1ncc(N2C(=O)C3(CCC3)N(c3ccc(C(=O)NCc4ccco4)c(F)c3)C2=S)cc1C(F)(F)F [Compound 266, 4-(7-(6-Cyano-5-(trifluoromethyl)pyridin-3-yl)-8-oxo-6-thioxo-5,7-diazaspiro[3.4]octan-5-yl)-2-fluoro-N-(furan-2-ylmethyl)benzamide] | > 6.00 | No (Agonist defined as a compound whose Emax in the ARVP16 DNA Binding Assay (Agonist mode) is >20x DMSO control)
8 | N#Cc1ncc(N2C(=O)C3(CCC3)N(c3ccc(C(=O)NCCN4CCCC4)c(F)c3)C2=S)cc1C(F)(F)F [Compound 234, 4-(7-(6-Cyano-5-(trifluoromethyl)pyridin-3-yl)-8-oxo-6-thioxo-5,7-diazaspiro[3.4]octan-5-yl)-2-fluoro-N-(2-(pyrrolidin-1-yl)ethyl)benzamide] | < 6.00 | No (Agonist defined as a compound whose Emax in the ARVP16 DNA Binding Assay (Agonist mode) is >20x DMSO control)
9 | Cc1ccc(N2C(=S)N(c3cnc(C#N)c4ccccc34)C(=O)C23CCC3)cc1 [Compound 65, 4-(8-Oxo-6-thioxo-5-(p-tolyl)-5,7-diazaspiro[3.4]octan-7-yl)isoquinoline-1-carbonitrile] | > 6.00 | Yes (Agonist defined as a compound whose Emax in the ARVP16 DNA Binding Assay (Agonist mode) is >20x DMSO control)
10 | CC(C)N1CCC(Oc2ccc(N3C(=S)N(c4cnc(C#N)c(C(F)(F)F)c4)C(=O)C34CCC4)cc2)CC1 [Compound 220, 5-(5-(4-((1-Isopropylpiperidin-4-yl)oxy)phenyl)-8-oxo-6-thioxo-5,7-diazaspiro[3.4]octan-7-yl)-3-(trifluoromethyl)picolinonitrile] | > 6.00 | No (Agonist defined as a compound whose Emax in the ARVP16 DNA Binding Assay (Agonist mode) is >20x DMSO control)
11 | N#Cc1ncc(N2C(=O)C3(CCC3)N(c3ccc(C(=O)NCCN4CCOCC4)c(F)c3)C2=S)cc1C(F)(F)F [Compound 242, 4-(7-(6-Cyano-5-(trifluoromethyl)pyridin-3-yl)-8-oxo-6-thioxo-5,7-diazaspiro[3.4]octan-5-yl)-2-fluoro-N-(2-morpholinoethyl)benzamide] | > 6.00 | No (Agonist defined as a compound whose Emax in the ARVP16 DNA Binding Assay (Agonist mode) is >20x DMSO control)
12 | CCOC(=O)CCNC(=O)c1ccc(N2C(=S)N(c3cnc(C#N)c(C(F)(F)F)c3)C(=O)C23CCC3)cc1F [Compound 246, Ethyl 3-(4-(7-(6-cyano-5-(trifluoromethyl)pyridin-3-yl)-8-oxo-6-thioxo-5,7-diazaspiro[3.4]octan-5-yl)-2-fluorobenzamido)propanoate] | < 6.00 | No (Agonist defined as a compound whose Emax in the ARVP16 DNA Binding Assay (Agonist mode) is >20x DMSO control)
13 | Cc1cc(N2C(=O)C3(CCC3)N(c3ccc(-c4ccco4)cc3)C2=S)cnc1C#N [Compound 116, 5-(5-(4-(Furan-2-yl)phenyl)-8-oxo-6-thioxo-5,7-diazaspiro[3.4]octan-7-yl)-3-methylpicolinonitrile] | > 6.00 | No (Agonist defined as a compound whose Emax in the ARVP16 DNA Binding Assay (Agonist mode) is >20x DMSO control)
14 | N#Cc1ncc(N2C(=O)C3(CCC3)N(c3ccc(C(=O)NCc4cccc(Cl)c4)c(F)c3)C2=S)cc1C(F)(F)F [Compound 288, N-(3-Chlorobenzyl)-4-(7-(6-cyano-5-(trifluoromethyl)pyridin-3-yl)-8-oxo-6-thioxo-5,7-diazaspiro[3.4]octan-5-yl)-2-fluorobenzamide] | > 6.00 | No (Agonist defined as a compound whose Emax in the ARVP16 DNA Binding Assay (Agonist mode) is >20x DMSO control)
15 | Cc1ccc(N2C(=S)N(c3ccc4nccn4c3)C(=O)C23CCC3)cc1 [Compound 62, 7-(Imidazo[1,2-a]pyridin-6-yl)-6-thioxo-5-(p-tolyl)-5,7-diazaspiro[3.4]octan-8-one] | < 6.00 | No (Agonist defined as a compound whose Emax in the ARVP16 DNA Binding Assay (Agonist mode) is >20x DMSO control)
16 | N#Cc1ncc(N2C(=O)C3(CCC3)N(c3ccc(C(=O)O)c(F)c3)C2=S)cc1C(F)(F)F [Compound 224, 4-(7-(6-Cyano-5-(trifluoromethyl)pyridin-3-yl)-8-oxo-6-thioxo-5,7-diazaspiro[3.4]octan-5-yl)-2-fluorobenzoic acid] | < 6.00 | No (Agonist defined as a compound whose Emax in the ARVP16 DNA Binding Assay (Agonist mode) is >20x DMSO control)
17 | N#Cc1ncc(N2C(=O)C3(CCC3)N(c3ccc(F)c(C(=O)NCCN4CCCC4)c3)C2=S)cc1C(F)(F)F [Compound 251, 5-(7-(6-Cyano-5-(trifluoromethyl)pyridin-3-yl)-8-oxo-6-thioxo-5,7-diazaspiro[3.4]octan-5-yl)-2-fluoro-N-(2-(pyrrolidin-1-yl)ethyl)benzamide] | < 6.00 | No (Agonist defined as a compound whose Emax in the ARVP16 DNA Binding Assay (Agonist mode) is >20x DMSO control)
18 | Cc1cc(N2C(=O)C3(CCC3)N(c3ccc(C(=O)Nc4ccccc4Cl)c(F)c3)C2=S)cnc1C#N [Compound 294, N-(2-Chlorophenyl)-4-(7-(6-cyano-5-methylpyridin-3-yl)-8-oxo-6-thioxo-5,7-diazaspiro[3.4]octan-5-yl)-2-fluorobenzamide] | > 6.00 | No (Agonist defined as a compound whose Emax in the ARVP16 DNA Binding Assay (Agonist mode) is >20x DMSO control)
19 | N#Cc1ncc(N2C(=O)C3(CCC3)N(c3ccc(C(=O)NCCc4ccccc4)c(F)c3)C2=S)cc1C(F)(F)F [Compound 257, 4-(7-(6-Cyano-5-(trifluoromethyl)pyridin-3-yl)-8-oxo-6-thioxo-5,7-diazaspiro[3.4]octan-5-yl)-2-fluoro-N-phenethylbenzamide] | > 6.00 | No (Agonist defined as a compound whose Emax in the ARVP16 DNA Binding Assay (Agonist mode) is >20x DMSO control)
20 | CN1CCN(Cc2ccc(N3C(=S)N(c4cnc(C#N)c(C(F)(F)F)c4)C(=O)C34CCC4)cc2)CC1 [Compound 93, 5-(5-(4-((4-Methylpiperazin-1-yl)methyl)phenyl)-8-oxo-6-thioxo-5,7-diazaspiro[3.4]octan-7-yl)-3-(trifluoromethyl)picolinonitrile] | < 6.00 | No (Agonist defined as a compound whose Emax in the ARVP16 DNA Binding Assay (Agonist mode) is >20x DMSO control)
